Experimental data from a melting point compilation (Tetko et al.; mined from patent text by program, amines drawn as free bases though some values may be those of a salt).

SMILES	melting point
COC(=O)C1=C(C)NC(C)=C(C(=O)OC)C1c1ccc(OC)c(OC)c1	154 to 155 °C
CC1=CC(=O)CC(C)(C)C1(O)/C=C/C(C)=C\C=O (configuration not stated)	111 to 113 °C
COCc1cc(N)no1	49 to 52 °C
CC(C)[C@H](O)CP(=O)(O)CCCN	187 to 189 °C
CNC(=O)NC(=O)C(CC1CCC(O)C1)c1ccc(Cl)c(Cl)c1 (configuration not stated)	82 to 84 °C
OC1CCc2cc3ccccc3n2C1 (configuration not stated)	99 to 100 °C
COc1cc(C(=O)CCCN2CCC(OC(=O)c3cc(Cl)c(N)c4c3OC(C)(C)C4)CC2)cc(OC)c1OC	154 °C
COC(=O)c1cc(-c2ccc(OC)c(OC)c2)nn(CC2CC2)c1=O	136 to 137 °C
CCc1cn(C2CC(O)C(CCC(=O)C(C)Oc3ccc(Cl)cc3Cl)O2)c(=O)[nH]c1=O (mixture of isomers)	157 to 159 °C
Cc1cc(SCc2ccc(OCc3ccc(Cl)cc3)cc2)ccc1OCC(=O)O	164 °C
COc1ccc(C[C@H](N)[C@H](O)c2ccc(F)cc2)cc1 (racemic)	78 to 79 °C
COc1ncc(C=O)cc1Br	94 to 95 °C
N#Cc1cc(N)ccc1OC1CCCCC1	59 °C
Cc1nc(N)c2nc(C)n(CCCCNS(C)(=O)=O)c2c1C	228 to 230 °C
CC(=O)NCC1CC(c2ccc(C3=CCN(C(=O)CO)CC3)cc2)=NO1 (configuration not stated)	115 to 118 °C
O=C(Nc1cc(-c2ccnc3c(C(=O)c4cccs4)cnn23)ccc1F)OCCCl	194 to 196 °C
C[C@@H](CC(=O)O)OC(=O)OCc1ccc([N+](=O)[O-])cc1	78 to 81 °C
CC(=O)SCC(CC(C)C)C(=O)Nc1cccc(C(=O)O)c1 (configuration not stated)	184 to 186 °C
O=Cc1cc2n(n1)CCOC2=O	135 to 136 °C
N#CC(N=Cc1ccc([N+](=O)[O-])cc1)=C(Cl)Cl	171 to 174 °C
OCC1NCc2ccsc2-n2cccc21 (configuration not stated)	166 °C

SMILES	melting point
CN(C)c1ccc(NC(=O)N(C[C@H]2CCC[C@H](CN(C(=O)Nc3ccc(N(C)C)cc3)C3CCCCCC3)C2)C2CCCCCC2)cc1 (relative stereo)	109 to 114 °C
CCOC(=O)C(=NOCCBr)c1csc(NC=O)n1	95 to 98 °C
CCc1noc(-c2cn(-c3cccc(OC4CCCC4)c3)cn2)n1	132 °C
CC(CCNC(=O)c1ccc(OC(F)(F)F)cc1)CC(C)(C)CNC(=O)c1ccc(OC(F)(F)F)cc1 (configuration not stated)	97 to 99 °C
O=C(O)CCCCCCCCCNS(=O)(=O)c1ccc(Cl)cc1	192 to 194 °C
CON=CC(C)(C)NC(=O)c1c(Cl)cccc1C(=O)Nc1ccc(OC(F)(F)F)cc1C	197 °C
COC(=O)CC=CCC(=O)NCCc1ccccc1	69 to 70 °C
CCCOc1c(OC)cc(N)c2ncccc12	73 to 74 °C
C[C@@H]1CC[C@H](C(=O)O)Cc2onc(-c3ccc(Cl)cc3)c21 (relative stereo)	154 to 155 °C
CCOC(=O)c1ncn2c1CN(C)C(=O)c1c(F)cccc1-2	196 to 198 °C
CCCc1nc(-n2cccc2)c(CO)[nH]1	155 to 158 °C
O=C(NC(=O)C(Br)CBr)Nc1ccc(Cl)c(Cl)c1 (configuration not stated)	174 to 175 °C
CC1(C)CC(Br)c2cc(C#N)ccc2O1 (configuration not stated)	94 to 95 °C
Cc1cc2c(cc1F)NC(=O)C2	168 to 171 °C
C=Cc1ccc(C(=O)OC(C)(C)C)c(C#N)c1	51 to 53 °C
COc1nc2cc(Cl)c(Cl)c(N3NN=CC3CCO)c2nc1OC (configuration not stated)	212 to 214 °C
CCCCCCCCCCCCCC(C)Oc1c(I)cc(I)cc1I (configuration not stated)	56 to 58 °C
Cc1ccc(-c2ccc(C(=O)Nc3ccc4cc(CN5CCCC5)cnc4c3C)cc2)cc1	177 to 179 °C
O=c1oc2cc(O)c(O)cc2c(O)c1-c1coc2c1c(=O)oc1cc(O)c(O)cc12	> 300 °C
Cc1ccc(NC(=O)NCc2ccc3c(c2)CN(C2CCC(=O)NC2=O)C3=O)cc1 (configuration not stated)	267 to 269 °C
CCC(C)(C)c1ccc(OCCCC(=O)Nc2ccc(OC)c(NC(=O)CC(=O)C3(C)COC(C)(C)OC3)c2)c(C(C)(C)CC)c1	128 to 130 °C

Now from value to compound:

melting point	SMILES
157 to 159 °C	CCCCc1nc2ccc(O)cc2c(=O)n1Cc1ccc(-c2ccccc2-c2nnnn2COC)cc1
121 to 124 °C	C#Cc1c(C(C)C)cc(-c2ccccc2)nc1-c1ccc(F)cc1
154 to 155 °C	O=C1Cc2ccccc2C(c2ccccc2)CN1 (configuration not stated)
92 to 94 °C	CC(C)n1cc(-c2ccc(Oc3ccccc3)c(CO)c2)c2c(N)ncnc21
83 to 85 °C	c1ccc(-c2cncc(CN3CCN(c4ccccc4)CC3)c2)cc1
137 to 138 °C	CC(=O)Oc1cc(Oc2ccccc2)c(OC(C)=O)c2ccccc12
192 to 195 °C	Clc1ccc(Nc2ncc(Sc3ccncc3)c3ccccc23)cc1
120 to 122 °C	CCS(=O)(=O)c1ccc(Oc2cc(Cl)c(Cl)cc2Cl)nc1
270 °C	Cc1ccc2c(c1)c1cc(-c3ccc(Cl)cc3Cl)c(=O)n(C)c1n2CC#N
41 to 43 °C	CCc1ccc2c(-c3ccccc3)onc2c1
226 to 227 °C	CC1(C)Oc2ccc(C#N)cc2[C@@H](N(C(N)=O)c2ccccc2)[C@@H]1O (relative stereo)
193 to 194 °C	Cc1nn(-c2ccc(F)cc2)cc1C(=O)Nc1ccc(OCC(C)(C)C)c(Br)c1
103 to 105 °C	CN1CCC(c2nn(-c3cccc(C(F)(F)F)c3)c3ccccc23)CC1
220 to 221 °C	CCOC(=O)/C=C/C1N(C(C)C)C(=O)c2ccccc2C1(O)c1ccc(F)cc1 (configuration not stated)
118 to 119 °C	Cc1ccc(NS(=O)(=O)c2ccccc2)cc1
311 to 314 °C	O=C(O)c1cnc2c3cc(NC(=O)C4CCCCC4)ccc3ncn2c1=O
281 to 283 °C	O=c1cc(-c2ccccc2Cl)[nH]c(=O)n1-c1ccc(C(F)(F)F)cn1
133 to 136 °C	Cc1ccccc1N(CN1C(=O)CSC1=O)C(=O)CCl
107 °C	O=C1Nc2ccc(F)cc2C(C#Cc2ccccc2)(C(F)(F)F)N1 (racemic)
213 to 214 °C	O=C(O)COc1cccc2c1CCc1sc(S(=O)(=O)C(c3cccc(F)c3)c3cccc(F)c3)nc1-2
261 to 262 °C	CC(C)C(C(=O)O)N(Cc1cccnc1)S(=O)(=O)c1ccc(-c2ccc(NC(=O)c3cc4ccccc4o3)cc2)cc1 (configuration not stated)
156 to 157 °C	O=C(Nc1cccc(C(F)(F)F)c1F)c1ccccc1[N+](=O)[O-]
252 °C	CC(=O)NNc1ccnc2c(NC(=O)c3c(Cl)cccc3Cl)cccc12
204 °C	Cc1[nH]c(=S)n(Nc2cccc(Cl)c2)c1-c1cccc(Cl)c1
155 °C	COc1cccc(OC)c1C(=O)P(=S)(C(=O)c1c(OC)cccc1OC)c1ccccc1
133 to 134 °C	Cc1c(N)cccc1-c1cn(C)c(=O)c(Nc2ccc(C3C(=O)N(C)CCN3C)cc2)n1 (configuration not stated)
106 to 117 °C	Cc1ccc(C)c(S(=O)(=O)n2c(CCCC(=O)O)cc3nc(Cl)ccc32)c1
132 to 134 °C	O=c1c2ccccc2nnn1OS(=O)(=O)c1ccccc1
35 to 38 °C	O=C(CS(=O)(=O)c1ccccc1)OC1CCCCC1
208 to 209 °C	Cc1ccc(NC(=O)c2cccc(N3CCOCC3)c2)cc1NC(=O)c1cccc(N(C)S(C)(=O)=O)c1
